Assay results as given in US20240051956A1, “SOS1 INHIBITORS AND USES THEREOF” (QILU REGOR THERAPEUTICS INC., priority 2020, published 2024).
Where two headings read alike, the source gives them in different places.

Key:
[1] = Human liver microsomal stability; assay type: in vitro ADME; conditions: for half-life: human liver microsomes, read-out: Human liver microsomal stability, T1/2; for stability in human liver microsomal assay: in words, compound I-18 vs present compounds
[2] = test system: NCI-H358; assay: Cell proliferation assay, 3D, CellTiter-Glo 3D; assay type: cell-based, human; conditions: for IC50: Homo sapiens, read-out: anit-prolif. H358 IC50
Procedure: b. Cell Proliferation Assay
Low IC50 values are indicative of high potency of the compounds in this assay setting.
Cell proliferation assay is performed in three-dimensional (3D) ultra-low conditions with the human cell line NCI-H358, a human non-small cell lung cancer (NSCLC) cell line with a KRAS G12C mutation.
• 96-well Clear Round Bottom Ultra-Low Attachment Microplate (Corning, Cat. 7007) • 96-well Flat Clear Bottom White Polystyrene TC-treated Microplates (Corning, Cat. 3610) • RPMI-1640 Medium (Gibco, Cat. 22400105) • Fetal Bovine Serum (FBS) (Gibco, Cat. 10099141C) • 0.25% Trypsin-EDTA (Gibco, Cat. 25200056) • Penicillin-Streptomycin (Gibco, Cat. 15140122) • CellTiter-Glo 3D Cell Viability Assay (Promega, Cat. G9683)
NCI-H358 cells (ATCC, Cat. CRL-5807) are grown in cell culture flasks using RPMI medium supplemented with 10% FBS. Cells are incubated at 37° C. and 5% C02 in a humidified atmosphere, with sub-cultivation performed twice a week. Cells are trypsinized, counted and plated in 96-well ultra-low adhesion plates for 3D cell viability determination. The day after plating, serial dilutions of SOS1 inhibitor compounds are made using Tecan D300e Digital Dispenser to evaluate a concentration-dependent effect on cell viability. The concentration of the test compounds covers a range between 5 μM and 0.76 nM with serial 1:3 dilutions in 9 concentrations. 0.5 μL serial dilutions of the compounds are added in duplicates. 3 days later, the CellTiter-Glo 3D Cell Viability Assay is used to measure cell viability effects of SOS1 inhibitor compounds in 3D format. Luminescent intensity is determined using Envision (PerkinElmer). Data is analyzed and IC50 values are calculated using GraphPad Prism.

[3] = target: SOS1 and KRAS G12D (Homo sapiens (Human), UniProt Q07889); assay: KRAS::SOS1 AlphaScreen Binding Assay; conditions: SOS1 (564-1049), KRAS G12D (1-169), GDP
Text: a. KRAS::SOS1 AlphaScreen Binding Assay
Low IC50 values of given compounds are indicative of high potency of the SOS1 inhibitor compounds in this assay setting.
• GST-TEV-SOS1 (564-1049) and His-TEV-Avi-KRAS G12D (1-169) are purchased from Viva Biotech (Shanghai) Ltd. • GDP (Sigma, Cat. G7127) • AlphaLISA Glutathione Acceptor Beads (PerkinElmer, Cat. AL109C) • AlphaScreen Streptavidin Donor Beads (PerkinElmer, Cat. 6760002S) • Assay plates: ProxiPlate-384 Plus, White 384-shallow well Microplate (PerkinElmer, Cat. 6008280)
SOS1 inhibitor compounds are diluted to a final start concentration of […]. Serial dilutions of compounds are made using Tecan D300e Digital Dispenser in 9 concentrations with serial 1:3 dilutions. 100 nL of compound solution is transferred to the 384-well assay plate per well, covering a range between 1 μM and 0.15 nM minimum in duplicate. 10 nM (final assay concentration) KRAS G12D, 5 nM (final assay concentration) SOS1 and 10 μM (final assay concentration) GDP are mixed in assay buffer, and 5 μL of KRAS::SOS1 GDP mix is added into the assay plate to the 100 nL of compound solution (final dilution in the assay 1:100, final DMSO concentration 1%). After a 30 min incubation, AlphaLISA Glutathione Acceptor Beads and AlphaScreen Streptavidin Donor Beads are mixed in assay buffer at a concentration of 5 µg/mL (final assay concentration), and 5 μL of bead mix is added into the assay plate. Plates are kept at room temperature in a darkened incubator for 3 h. After a 3 h incubation, the signal is determined using Envision (PerkinElmer). The excitation wavelength is 680 nm, and emission 615 nm. IC50 values are calculated and analyzed using GraphPad Prism.

[4] = 72 h, NCI-H358 (KRAS G12C), 3D ultra-low attachment, 3 days

Chain of SOS1 and KRAS G12D (Q07889 564-1049, stated change not applied): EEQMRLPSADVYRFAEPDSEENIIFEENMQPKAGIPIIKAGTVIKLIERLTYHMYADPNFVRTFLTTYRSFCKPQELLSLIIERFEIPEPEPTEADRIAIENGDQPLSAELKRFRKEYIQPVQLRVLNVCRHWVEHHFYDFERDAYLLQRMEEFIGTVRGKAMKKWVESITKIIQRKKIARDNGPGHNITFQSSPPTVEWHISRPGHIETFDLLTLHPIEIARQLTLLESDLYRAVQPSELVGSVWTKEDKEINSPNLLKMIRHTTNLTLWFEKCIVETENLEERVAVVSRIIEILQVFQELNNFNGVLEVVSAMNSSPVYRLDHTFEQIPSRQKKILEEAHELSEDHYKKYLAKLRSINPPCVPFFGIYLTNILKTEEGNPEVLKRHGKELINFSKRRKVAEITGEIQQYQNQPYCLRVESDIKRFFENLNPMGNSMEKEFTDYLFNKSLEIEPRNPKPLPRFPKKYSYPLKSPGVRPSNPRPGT

Structure (SMILES)	half-life [1] [h]	stability in human liver microsomal assay [1]	IC50 [2, 4] [µM]	IC50 ([2]; NCI-H358, H358 cells) [µM]	IC50 [3] [µM]	activity in H358 cellular assay ([2]; in words, compound I-18 vs present compounds)
Cc1nc(N[C@H](C)c2cccc(C(F)F)c2F)c2cn(N3CCOCC3)c(=O)cc2n1 [Example 1, 4-[[(1R)-1-[3-(difluoromethyl)-2-fluoro-phenyl]ethyl]amino]-2-methyl-6-morpholino-pyrido[4,3-d]pyrimidin-7-one]	1.4	dramatically improved	≤ 0.1	0.04	≤ 0.015	–
Cc1nc(N[C@H](C)c2cccc(C(F)(F)F)c2C)c2cn(N3CCOCC3)c(=O)cc2n1 [Example 17, (R)-2-methyl-4-((1-(2-methyl-3-(trifluoromethyl)phenyl)ethyl)amino)-6-morpholinopyrido[4,3-d]pyrimidin-7(6H)-one]	1.83	dramatically improved	≤ 0.1	0.023	≤ 0.015	–
Cc1nc(N[C@H](C)c2cccc(C(F)F)c2F)c2cn(N3CCOCC3)c(=O)c(F)c2n1 [Example 29, (R)-4-((1-(3-(difluoromethyl)-2-fluorophenyl)ethyl)amino)-8-fluoro-2-methyl-6-morpholinopyrido[4,3-d]pyrimidin-7 (6H)-one]	2.33	dramatically improved	≤ 0.1	0.049	≤ 0.015	–
Cc1nc(N[C@H](C)c2cccc(C(F)(F)F)c2C)c2cn(N3CCOCC3)c(=O)c(F)c2n1 [Example 30]	3.17	dramatically improved	≤ 0.1	0.028	≤ 0.015	–
Cc1nc(N[C@H](C)c2cccc(C(F)F)c2F)c2cn(N3CCOCC3)c(=O)c(-c3ccc(S(C)(=O)=O)cc3)c2n1 [Example 43, 4-[[(1R)-1-[3-(difluoromethyl)-2-fluoro-phenyl]ethyl]amino]-2-methyl-8-(4-methylsulfonylphenyl)-6-morpholino-pyrido[4,3-d]pyrimidin-7-one]	> 16.7	dramatically improved	≤ 0.1	0.053	≤ 0.015	–
Cc1nc(N[C@H](C)c2cccc(C(F)F)c2F)c2cn(N3CCOCC3)c(=O)c(-c3cnn(CCO)c3)c2n1 [Example 53]	0.733	dramatically improved	≤ 0.1	0.06	≤ 0.015	–
COc1ccc(-c2c(=O)n(N3CCOCC3)cc3c(N[C@H](C)c4cccc(C(F)F)c4F)nc(C)nc23)cn1 [Example 58]	–	–	≤ 0.1	–	≤ 0.015	–
Cc1ccc(-c2c(=O)n(N3CCOCC3)cc3c(N[C@H](C)c4cccc(C(F)F)c4F)nc(C)nc23)cn1 [Example 59]	–	–	≤ 0.1	–	≤ 0.015	–
Cc1nc(N[C@H](C)c2cccc(C(F)F)c2F)c2cn(N3CCOCC3)c(=O)c(-c3ccc(C(F)(F)F)nc3)c2n1 [Example 60]	–	–	≤ 0.1	–	0.015 to 0.15	–
Cc1nc(N[C@H](C)c2cccc(C(F)F)c2F)c2cn(N3CCOCC3)c(=O)c(-c3ccc(S(C)(=O)=O)nc3)c2n1 [Example 61]	> 16.7	dramatically improved	≤ 0.1	0.031	≤ 0.015	–
Cc1nc(N[C@H](C)c2cccc(C(F)F)c2F)c2cn(N3CCOCC3)c(=O)c(-c3ccc(C#N)c(F)c3)c2n1 [Example 62]	–	–	0.1 to 0.5	–	0.015 to 0.15	–
Cc1nc(N[C@H](C)c2cccc(C(F)F)c2F)c2cn(N3CCOCC3)c(=O)c(-c3ccc(F)c(C#N)c3)c2n1 [Example 63]	–	–	0.5 to 1	–	0.015 to 0.15	–
Cc1nc(N[C@H](C)c2cccc(C(F)F)c2F)c2cn(N3CCOCC3)c(=O)c(-c3cc(F)cc(C#N)c3)c2n1 [Example 64]	–	–	0.5 to 1	–	0.015 to 0.15	–
Cc1nc(N[C@H](C)c2cccc(C(F)F)c2F)c2cn(N3CCOCC3)c(=O)c(-c3cc(C#N)ccc3F)c2n1 [Example 65]	–	–	0.1 to 0.5	–	0.015 to 0.15	–

Continued, in another order:

half-life [1] [h]	stability in human liver microsomal assay [1]	IC50 [2, 4] [µM]	IC50 ([2]; NCI-H358, H358 cells) [µM]	IC50 [3] [µM]	Structure (SMILES)	activity in H358 cellular assay ([2]; in words, compound I-18 vs present compounds)
–	–	≤ 0.1	–	≤ 0.015	Cc1nc(N[C@H](C)c2cccc(C(F)F)c2F)c2cn(N3CCOCC3)c(=O)c(-c3cnc(C#N)nc3)c2n1 [Example 66]	–
–	–	≤ 0.1	–	0.015 to 0.15	Cc1nc(N[C@H](C)c2cccc(C(F)F)c2F)c2cn(N3CCOCC3)c(=O)c(-c3cnc(C#N)c(F)c3)c2n1 [Example 67]	–
–	–	0.1 to 0.5	–	≤ 0.015	Cc1nc(N[C@H](C)c2cccc(C(F)F)c2F)c2cn(N3CCOCC3)c(=O)c(-c3ccnc(C#N)c3)c2n1 [Example 68]	–
–	–	≤ 0.1	–	≤ 0.015	Cc1nc(N[C@H](C)c2cccc(C(F)F)c2F)c2cn(N3CCOCC3)c(=O)c(-c3cn(CC(F)F)cn3)c2n1 [Example 69]	–
–	–	0.1 to 0.5	–	≤ 0.015	Cc1nc(N[C@H](C)c2cccc(C(F)F)c2F)c2cn(N3CCOCC3)c(=O)c(-c3cnn(C)c3)c2n1 [Example 70]	–
–	–	0.1 to 0.5	–	≤ 0.015	Cc1nc(N[C@H](C)c2cccc(C(F)F)c2F)c2cn(N3CCOCC3)c(=O)c(-c3ccc(P(C)(C)=O)nc3)c2n1 [Example 71]	–
–	–	0.1 to 0.5	–	≤ 0.015	Cc1nc(N[C@H](C)c2cccc(C(F)F)c2F)c2cn(N3CCOCC3)c(=O)c(-c3ccc4nncn4c3)c2n1 [Example 72]	–
–	–	≤ 0.1	–	≤ 0.015	Cc1nc(N[C@H](C)c2cccc(C(F)F)c2F)c2cn(N3CCOCC3)c(=O)c(-c3ccc4nccn4c3)c2n1 [Example 73]	–
–	–	0.1 to 0.5	–	≤ 0.015	Cc1nc(N[C@H](C)c2cccc(C(F)F)c2F)c2cn(N3CCOCC3)c(=O)c(-c3ccccn3)c2n1 [Example 74, (R)-4-((1-(3-(difluoromethyl)-2-fluorophenyl)ethyl)amino)-2-methyl-6-morpholino-8-(pyridin-2-yl)pyrido[4,3-d]pyrimidin-7(6H)-one]	–
–	–	≤ 0.1	–	≤ 0.015	Cc1nc(N[C@H](C)c2cccc(C(F)F)c2F)c2cn(N3CCOCC3)c(=O)c(-c3ccc(C#N)nc3)c2n1 [Example 75, (R)-5-(4-((1-(3-(difluoromethyl)-2-fluorophenyl)ethyl)amino)-2-methyl-6-morpholino-7-oxo-6,7-dihydropyrido[4,3-]pyrimidin-8-yl)picolinonitrile]	–
–	–	0.1 to 0.5	–	0.015 to 0.15	Cc1nc(N[C@H](C)c2cccc(C(F)(F)F)c2C)c2cn(N3CCOCC3)c(=O)c(-c3ccc(C#N)nc3)c2n1 [Example 76]	–
–	–	0.1 to 0.5	–	≤ 0.015	CNCc1ccccc1-c1csc([C@@H](C)Nc2nc(C)nc3cc(=O)n(N4CCOCC4)cc23)c1 [Example 77, 2-methyl-4-[[(1R)-1-[4-[2-(methylaminomethyl)phenyl]-2-thienyl]ethyl]amino]-6-morpholino-pyrido[4,3-d]pyrimidin-7-one]	–
–	–	0.5 to 1	–	0.015 to 0.15	Cc1nc(N[C@H](C)c2cccc(C(F)F)c2F)c2cn(-n3ccnc3)c(=O)c(F)c2n1 [Example 86]	–
0.05	very poor stability	–	0.164	–	Cc1nc(N[C@H](C)c2cccc(C(F)F)c2F)c2cn(C3CCOCC3)c(=O)cc2n1 [Example I-18, reference compound]	weaker activity
